This is an account of results in patent US20130047297A1, “POLYNUCLEOTIDE MOLECULES FOR GENE REGULATION IN PLANTS” (priority 2010, published 2013).

Type in all cases: in vivo
Data set [1] deals with Glyphosate-resistant Palmer amaranth plants having 49 or 63 copies EPSPS. Briefly: Salicylic acid pretreatment with dsRNA and glyphosate (Example 15). The conditions noted are these: 15 millimolar SA 1, 5, or 24 hours before dsRNA; glyphosate 72 hours later; 7 days after glyphosate. How it is done: Salicylic acid (SA) induces virus resistance in tobacco; see, e. g., Chivasa et al. (1997) Plant Cell, 19:547-557. Glyphosate-resistant Palmer amaranth plants having 49 or 63 copies EPSPS were pretreated with 15 millimolar SA. A solution of the four oligonucleotide-size “short” EPSPS dsRNA molecules (described in Example 1) was applied by hand at 1, 5, or 24 hours after treatment with SA, followed 72 hours later by spraying with glyphosate (1682 g acid equivalent per hectare of Roundup® WeatherMAX® brand herbicide).

The subject of data set [2] is Glyphosate-resistant Palmer amaranth plants (33, 36, or 57 copies EPSPS). The experiment in a line: Spermine, spermidine or ammonium sulfate with dsRNA then glyphosate (Example 35, FIG. 39). The note with it: 10 mM spermidine alone. The procedure:
The effect of the polyamine cations spermine (N,N′-bis(3-aminopropyl)butane-1,4-diamine) and spermidine (N-(3-aminopropyl)butane-1,4-diamine) on herbicidal activity of topically applied polynucleotides (RNA) on glyphosate-resistant Palmer amaranth plants was investigated. […] The dsRNA polynucleotide solutions were prepared with either 1 or 10 millimolar spermine or spermidine or 2% ammonium sulfate, in a 10 millimolar sodium phosphate (pH 6.8) buffer. Control solutions (without polynucleotides) were prepared with either 1 or 10 millimolar spermine or spermidine or 2% ammonium sulfate, in a 10 millimolar sodium phosphate (pH 6.8) buffer. Glyphosate-resistant Palmer amaranth plants (33, 36, or 57 copies EPSPS) were pre-sprayed with 1% Silwet L-77. The dsRNA polynucleotide solutions (11.6 grams/acre) or buffer solutions were applied as drops on four lower fully expanded leaves of glyphos ate resistant Palmer amaranth by pipetting. Two days following polynucleotide treatment the plants were sprayed with glyphosate (3360 g acid equivalent per hectare of Roundup® WeatherMAX® brand herbicide).

Data set [3] relates to Nicotiana benthamiana phytoene desaturase. Briefly: Topical oligonucleotides/polynucleotides on tobacco, PDS bleaching and chlorophyll (Example 10). The procedure:
The following procedure was used for all assays described in this example. Four-week old Nicotiana benthamiana plants were used in all assays. Plants were treated with 0.1% Silwet L-77 solution freshly made with ddH2O. Two fully expanded leaves per plant (one cotyledon, one true leaf) were dipped into the Silwet L-77 solution for a few seconds, and allowed to dry for 15-30 minutes before application of the polynucleotide composition. Final concentration for each oligonucleotide or polynucleotide was 25 microM (in 0.01% Silwet L-77, 5 mM sodium phosphate buffer, pH 6.8) unless otherwise stated. 20 microliters of the solution was applied to the top surface of each of the two pre-treated leaves to provide a total of 40 microliters (1 nmol oligonucleotide or polynucleotide) for each plant. Leaf bleaching was observed 3 days post treatment.
FIG. 13 illustrates phenotypes observed at day 12 after treatment in another assay of the effect from twelve combinations of polynucleotides or oligonucleotides (see Table 4). Table 4 also lists observations of visible bleaching of the plants at day 5 after treatment and the results of chlorophyll measurements taken at days 7 and 12 after treatment. Chlorophyll measurements are an indication of suppression of the target gene phytoene desaturase, and measurements were taken at 6 spots on the apical area, focussing on visibly bleached leaves or (in plants without visible bleaching) on leaves in equivalent locations on the plants; lower chlorophyll measurement values indicate suppression of phytoene desaturase.

Data set [4] deals with endogenous Nicotiana benthamiana Argonaute-1 (AGO1) gene. Briefly: AGO1 anti-sense with PDS anti-sense, systemic bleaching (Example 33). The note with it: PDS 25 nanomoles; AGO1 50 nanomoles of each of 14; combined applied on separate leaves. The procedure: Nicotiana benthamiana plants were treated using a procedure similar to that described in Example 12. Polynucleotide solution (or mixed polynucleotides in the case of AGO1) were prepared in 0.01% (v/v) Silwet L-77 and 2% (w/v) ammonium sulfate in 5 millimolar sodium phosphate, pH 6.8. Two fully expanded leaves per plant were dipped into 0.1% Silwet L-77 solution freshly made with ddH2O for a few seconds, and allowed to dry. About 30 minutes later, 20 microliters of polynucleotide solution was applied to each of the two pre-treated leaves. For PDS, each of 5 plants received 25 nanomoles of the PDS anti-sense polynucleotide (SEQ ID NO:34); for AGO1, each of 5 plants received 50 nanomoles of each of the 14 AGO1 anti-sense polynucleotides (SEQ ID NOS:300-313); for PDS and AGO combined treatments, each of 5 plants received 25 nanomoles of the PDS anti-sense polynucleotide (SEQ ID NO:34) and 50 nanomoles of each of the 14 AGO1 anti-sense polynucleotides (SEQ ID NOS:300-313) applied on separate leaves. Paired control plants were treated with buffer (0.01% (v/v) Silwet L-77 and 2% (w/v) ammonium sulfate in 5 millimolar sodium phosphate, pH 6.8). No difference was observed between plants treated with the AGO1 anti-sense polynucleotides and the plants treated with buffer alone.

Data set [5] concerns endogenous PDS, EPSPS, or RuBisCO genes from Nicotiana benthamiana. The experiment in a line: PDS, EPSPS, RuBisCO anti-sense polynucleotides on Nicotiana benthamiana, plant height (Example 33). The conditions noted are these: PDS 25 nanomoles, EPSPS and RuBisCO 50 nanomoles of each per plant. How it is done: Nicotiana benthamiana plants were treated using a procedure similar to that described in Example 12. Polynucleotide solution (or mixed polynucleotides in the case of EPSPS and RuBisCO) were prepared in 0.01% (v/v) Silwet L-77 and 2% (w/v) ammonium sulfate in 5 millimolar sodium phosphate, pH 6.8. Two fully expanded leaves per plant were dipped into 0.1% Silwet L-77 solution freshly made with ddH2O for a few seconds, and allowed to dry. About 30 minutes later, 20 microliters of polynucleotide solution, was applied to each of the two pre-treated leaves. For PDS, each of 5 plants received 25 nanomoles of the PDS anti-sense polynucleotide (SEQ ID NO:34); for EPSPS, each of 5 plants received 50 nanomoles of each EPSPS anti-sense polynucleotide (SEQ ID NOS:279-284); and for RuBisCO, each of 5 plants received 50 nanomoles of each RuBisCO anti-sense polynucleotide (SEQ ID NOS:288-295). Paired control plants were treated with buffer (0.01% (v/v) Silwet L-77 and 2% (w/v) ammonium sulfate in 5 millimolar sodium phosphate, pH 6.8).

Data set [6] relates to volunteer glyphosate-resistant corn plants. Briefly: Synthetic Pol III gene dsDNA on volunteer corn (Example 8). The note with it: 0.1 wt % Silwet L-77 and dsDNA sprayed, glyphosate 7 days later; 15 days later. From the text:
(§1) This example illustrates the utility of employing a synthetic Pol III gene in compositions and methods of this invention. With reference to SEQ ID NO:3 and FIG. 2, a synthetic Pol III gene is created using elements from an Arabidopsis thaliana U6 snRNA gene to provide a dsDNA molecule with two copies of RGCCCR elements (bold and underlined), an upstream sequence element (USE) having the sequence “[…]” (SEQ ID NO:4, bold and underlined), a TATA box (bold and underlined), a “G” nucleotide (bold and underlined), anti-sense DNA (italics) corresponding to a bacterial DNA encoding an EPSPS protein (see U.S. Pat. No. RE39,247) that imparts resistance to glyphosate herbicide when expressed in transgenic corn plants, an “[…]” element (SEQ ID NO:5, bold and underlined) embedded in the anti-sense DNA, an “[…]” element (SEQ ID NO:6, bold and underlined) followed by sense DNA (lower case) and a “TTTTTT” terminator element (SEQ ID NO:7, bold and underlined). A solution of 0.1 wt % Silwet L-77 brand organosilicone surfactant and a solution of multiple copies of the dsDNA molecule are sprayed onto leaves of volunteer glyphosate-resistant corn plants growing in a field of glyphosate-resistant soybean plants, followed 7 days later by treatment with Roundup WeatherMAX® brand glyphosate herbicide. […]

Data set [7] concerns glyphosate-resistant soybean plants. Briefly: Synthetic Pol III gene dsDNA, soybean crop (Example 8). The note with it: 0.1 wt % Silwet L-77 and dsDNA sprayed, glyphosate 7 days later; 15 days later.
Excerpt: as §1

With `O=C(O)c1ccccc1O` [SA, Salicylic acid], the “improvement of the effects of the dsRNAs and glyphosate activity (plant height)” value in data set [1] is recorded as “No improvement”.
Regarding `NCCCCNCCCN` [spermidine, N-(3-aminopropyl)butane-1,4-diamine], the “plant outcome, 33-copy” value in data set [2] was “stunted”.
Turning to “PDS 21-mer anti-sense ssDNA: SEQ ID NO:34 (antisense CATCTCCTTTAATTGTACTGC; DNA, backbone not given here)”, the “bleaching of apical leaves (FIG. 15)” value in data set [3] (another assay) was “strong bleaching”. Also, in data set [3] (topical treatment), the “bleaching of apical leaves (FIG. 14)” value was “Strong bleaching”. Further, the “systemic bleaching / difference from buffer” value in data set [4] was “displayed systemic bleaching”. Also, the “plant height (FIG. 36)” value in data set [5] (12 days (PDS and EPSPS) or 10 days (RuBisCO) after treatment) is recorded as “severe stunting”. For the same molecule, the other phenotype entry in data set [5] is reported as “bleaching”.

B1: synthetic Pol III gene: dsDNA, SEQ ID NO:3, U6 snRNA elements with anti-sense and sense DNA of bacterial EPSPS (nucleic acid)
DNA: GGCCCATAGGCCTTTTTCTAAAATAGGCCCATTTAAGCTATTAACAATCTTCAAAAGTACCACATCGCTTAGGTAAAGAAAGCAGCTGAGTTTATATATGGTTAGAGACGAAGTAGTGATTGCGACGAGCGACGTCTCGCCCTCATCGCAATCCACGCCATTGAGCTTGAGGCCATTGGCGACGGCCGAGAGGCGGTCGCTTAAGATTAGCATGTCCTTGACGCGGAGTTCTTCCAGACCGTTCATCACGGTCGCCCCTTCCGCGAAGGCGGCGGCGACAGCGAGAATCGGATATTCGTCGATCATCGAAGGCGCGCGGTCTTCCGGCACCGTGACGCATAAACACGGTGCCGGAAGACCGCGCGCCTTCGATGATCGACGAATATCCGATTCTCGCTGTCGCCGCCGCCTTCGCGGAAGGGGCGACCGTGATGAACGGTCTGGAAGAACTCCGCGTCAAGGAAAGCGACCGCCTCTCGGCCGTCGCCAATGGCCTCAAGCTCAATGGCGTGGATTGCGATGAGGGCGAGACGTCGCTCGTCGTTTTTTTTGGCAAAAA
Consider B1, for which, in data set [6], the corn plant outcome is recorded as “dead”. The soybean plant outcome in data set [7] is “thriving”.
